Tests used:
[1] = system: peripheral blood mononuclear cells (PBMCs); assay: Randomized trial of NR in HFrEF: PBMC mitochondrial respiration; format: in vivo, human; conditions: Week 12 vs Week 0, NR group
Method: Peripheral Blood Mononuclear Cell (PBMC) Mitochondrial Function. PBMCs were isolated from freshly-collected whole blood by centrifugation in Sepmate™-50 PBMC isolation tubes (STEMCELL Technologies, Vancouver, BC, Canada; Cat. 85450). Isolated PBMCs were resuspended in Seahorse XF® medium (Agilent, Cat. 102353-100) and then plated (10^6 cells/well) onto Seahorse® (Agilent) 24-well plates. PBMC mitochondrial respiratory function was assessed by measuring the oxygen consumption rate (OCR) at baseline and maximal stimulated conditions as described in Zhou B, et al. (J Clin Invest. 2020, 130:6054-6063 (Experimental Example 1)). Exploratory Endpoints. The following endpoints were considered exploratory, as the Study was underpowered to detect differences.

[2] = system: NLRP3 and cytokines mRNA of PBMC of Stage D HF subjects; assay: PBMC NLRP3 and cytokine mRNA of Stage D HF patients pre- and post-oral NR; format: in vivo, human; conditions: oral NR 5-9 days, post vs pre
Method: For experiments associated with the oral NR administration (FIGS. 12C-12F), 5 hospitalized Stage D HF patients undergoing advanced heart failure therapy evaluations were put on escalating doses of NR (250 mg twice a day for Day 1, 500 mg twice a day for Day 2, and 1000 mg twice a day from Day 3 on) for 5-9 days. Fasting blood samples were obtained for PBMC isolation at baseline and post-NR administration. Subject 5 was withdrawn due to a change in clinical course deemed to be independent from NR administration.
(§1) RNA Isolation and Quantitative PCR analysis. Total RNA was isolated from frozen PBMC pellets using Trizol (Invitrogen) per the manufacturer's instructions, and cDNA was synthesized using iScript™ Reverse Transcription Supermix (Bio-rad) per the manufacturer's instructions. Real-time PCR was performed in the Corbett rotor gene 6000 real-time PCR machine using iQ™ SYBR® Green Supermix (Bio-rad) and expression levels of the indicated genes were calculated using the ΔΔCt method.

[3] = system: NLRP3 and proinflammatory cytokine gene expressions in HF PBMCs; assay: RT-qPCR of NLRP3 and cytokine mRNA in Stage D HF PBMCs treated in vitro with NR; format: cell-based, human; conditions: 4-hour 1 mM NR vs vehicle
Method: (§2) PBMC and Monocyte Culture. Freshly isolated PBMCs or Monocytes from healthy or HF subjects were resuspended with RPMI medium plus 10% heat inactivated FBS. PBMCs (10^6 cells/well) were seeded in Seahorse 24-well plates and incubated at 37° C. in CO2 incubator with various proinflammatory triggers (Vehicle, MitoDAMP, LPS) and compounds (NR, MCC 950, MitoTempo, or LMT-28). After 4 hours incubation, the plate was centrifuged at 40 g for 10 minutes at room temperature without application of the brake to help cells attach to the bottom of the plate. The cells were washed twice and then brought up to 500 μL using Seahorse base medium (Agilent Technologies, supplemented with 1 mM pyruvate, 2 mM glutamine, and 10 mM glucose, pH 7.4).
IL6 ELISA. Isolated PBMCs (4×10^6 cells per sample) from healthy or HF participants were resuspended in RPMI medium containing 10% heat-inactivated FBS and treated with various proinflammatory triggers (Vehicle, MitoDAMP, LPS) and compounds (NR, MCC 950, MitoTempo, or LMT-28) to final PBMC concentrations of 10×10^6 cells per mL. See below for detailed descriptions of the reagents. […]
RNA Isolation and Quantitative PCR analysis. […] Real-time PCR was performed in the Corbett rotor gene 6000 real-time PCR machine using iQ™ SYBR® Green Supermix (Bio-rad) and expression levels of the indicated genes were calculated using the ΔΔCt method.

healthy PBMCs = assay: Seahorse Mito Stress Test (OCR) of healthy PBMCs after 4-hour in vitro treatment; format: cell-based, human
Method: PBMC and Monocyte isolation. 30-60 ml of fasting blood was collected into EDTA-containing Vacutainers (BD Mfr #364606). Blood then was diluted (1:1) with RPMI medium (Corning; Cat #17-105-CV) and applied to Histopaque gradient medium (Sigma-Aldrich; Cat #10771) using SepMate-50 (STEMCELL Technologies), and centrifuged at 1200 g for 10 minutes. Top layer contained the enriched peripheral blood mononuclear cells (PBMCs) which were collected and followed by centrifugation at 300 g for 10 minutes. The pellet was resuspended with ACK lysis buffer (Gibco; Cat. A1049201) and incubated at room temperature for 5 minutes to remove residual red blood cells. Next, the enriched PBMCs were washed twice with RPMI medium. All PBMC samples were subjected to the baseline Seahorse Mito Stress Test. When available, the remaining cells were used for cytokine mRNA quantitative PCR and in vitro assays. For monocyte isolation, a magnetic bead-based negative-selection monocyte isolation kit (Miltenyi Biotec, 130-096-537) was used per the manufacturer's instructions. Briefly, antibody-conjugated magnetic bead solution was added to isolated PBMCs resuspended in RPMI containing 0.5% BSA and incubated for 20 minutes at 4° C., followed by magnetic column binding and elution. The procedure was repeated once to improve the purity of monocytes. The monocytes were washed once with RPMI prior to subsequent experiments.
Seahorse Mito Stress Test. Oxygen consumption rate (OCR) of freshly isolated PBMCs was assessed using a Seahorse XFe24 analyzer (Agilent Technologies). Briefly, purified PBMCs were resuspended in Seahorse base medium (Agilent Technologies, supplemented with 1 mM pyruvate, 2 mM glutamine, and 10 mM glucose, pH 7.4), and added 10^6 cells/well at equal volume of 500 μL in a Seahorse 24-well plate. The cells were maintained in a non-CO2 incubator and allowed to settle for 30 minutes at 37° C. Next, the plate was centrifuged at 40 g for 10 minutes at room temperature without application of the brake to help cells attach to the bottom of the plate. Drugs used in the assay: 5 μM oligomycin A (Sigma-Aldrich; Cat. 75351), 3 μM Trifluoromethoxy carbonylcyanide phenylhydrazone (FCCP) (Sigma-Aldrich; Cat. C2920), 1 μM Rotenone (Sigma-Aldrich; Cat. […]), 1 μM Antimycin A (Sigma-Aldrich; Cat. […]), 0.5 mM TMPD (Sigma-Aldrich; Cat. T7394) and 10 mM Ascorbate (Sigma-Aldrich; Cat. 95209).
as §2

[4] = system: NLRP3 and pro-inflammatory cytokine (IL1β, IL6, IL18, TNFα) mRNA in healthy PBMCs; assay: RT-qPCR of NLRP3 and pro-inflammatory cytokine mRNA in healthy PBMCs treated in vitro; format: cell-based, human
Method: as §2
IL6 ELISA. Isolated PBMCs (4×10^6 cells per sample) from healthy or HF participants were resuspended in RPMI medium containing 10% heat-inactivated FBS and treated with various proinflammatory triggers (Vehicle, MitoDAMP, LPS) and compounds (NR, MCC 950, MitoTempo, or LMT-28) to final PBMC concentrations of 10×10^6 cells per mL. See below for detailed descriptions of the reagents. The samples were incubated in Eppendorf tubes at 37° C. in a 5% CO2 incubator with caps open for times designated in the brief description of drawings. The cultured PBMC samples were centrifuged at 8,000 RPM at room temperature. The supernatant was used for ELISA per the manufacture protocol using R&D Systems human IL6 kit (Cat #DY206-05). The cell pellets were stored in −80° C.
as §1

[5] = healthy PBMC, 4-hour 1 mM NR vs vehicle, absence of MitoDAMP

Compound: NC(=O)c1ccc[n+]([C@@H]2O[C@H](CO)[C@@H](O)[C@H]2O)c1 [NR, nicotinamide riboside]
- baseline (basal) PBMC mitochondrial respiration rates [1]: not changed
- maximal PBMC respiration ([1]; did not reach statistical significance): marginal increase
- reduction of proinflammatory cytokine gene expressions [2]: up to 30 fold
- reductions of NLRP3 and proinflammatory cytokine gene expressions [3]: minimal
- basal OCR (healthy PBMCs; [5]): increased
- maximal OCR (healthy PBMCs; [5]): increased
- MitoDAMP-induced decline of maximal OCR (healthy PBMCs; healthy PBMC, 4-hour MitoDAMP with 1 mM NR): partially prevented
- maximal OCR (healthy PBMCs; healthy PBMCs, 4-hour 10 ng/mL LPS with 1 mM NR): enhancing
- proinflammatory cytokine gene expressions ([4]; 4-hour 10 ng/mL LPS with 1 mM NR relative to LPS alone): reducing
- proinflammatory cytokine gene expressions ([4]; 4-hour MitoDAMP with 1 mM NR relative to MitoDAMP only): reduction

Reference: patent publication US20230263817A1, “HIGH DOSE NICOTINAMIDE ADENINE DINUCLEOTIDE (NAD) PRECURSOR REGIMENS FOR REDUCTION OF INFLAMMATION IN HUMAN PATIENTS WITH PREEXISTING INFLAMMATION” (University of Washington, priority 2021, published 2023)
